From PubChem BioAssay AID1259332 (Broad Institute, 2017) come the findings set out here.

Active and inactive are the calls of the source. The rule behind the calls is not given here.

For the assay, the system named is B cell line, CD40 signaling inhibition reporter. Description: inhibitors of CD40 signaling, dose response, B cell lineage (AID 1259332).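 Note: cells stimulated with CD40 ligand tCD40L.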
On to `CCCCNC(=O)C1(C)CCN1C(=O)c1cc(-c2cccs2)oc1C` (centres undefined), for which the half-maximal activity concentration (AC50) is 3.11 µM.
In the case of `CC1=CC2OC3CC4OC(=O)C=CC=CC(=O)OCCC(C)C(O)C(=O)OCC2(CC1O)C4(C)C31CO1` (centres undefined), the concentration at half-maximal activity (AC50) was 0.0067 µM.
Regarding `CCS(=O)(=O)N1[C@H](CO)[C@@H](c2ccc(C#Cc3ccccc3F)cc2)[C@@H]1C#N`, the AC50 is 4.12 µM.
With `C[C@H]1CN([C@@H](C)CO)C(=O)c2cccc(NC(=O)Nc3ccc(F)cc3)c2O[C@H]1CN(C)S(=O)(=O)c1ccc(Cl)cc1`, the AC50 is 4.87 µM.
Take `C=C1C(=O)OC2C=C(CO)C3OC3C3OC3(C)CC(OC(=O)/C(=C/C)COC(C)=O)C12` (centres undefined): the AC50 was 2.02 µM.
As for `Clc1ccc(COC(Cn2ccnc2)c2ccc(Cl)cc2Cl)c(Cl)c1` (centres undefined), the AC50 was 5.18 µM.
Regarding `Cc1ccc(CN2CC(C(=O)Nc3ncc(C)s3)CC2=O)cc1` (centres undefined), the concentration at half-maximal activity (AC50) is 4.99 µM.
In the case of `COC(=O)c1ccccc1-c1c2ccc(=N)cc-2oc2cc(N)ccc12`, the concentration at half-maximal activity (AC50) was 10.9 µM.
On to `Cc1ccnc(NC(=O)c2ccc(OCC3CCCO3)cc2)c1` (centres undefined), for which the half-maximal activity concentration (AC50) was 5.23 µM.
In the case of `O=C(Cn1ncc(Cl)c(Cl)c1=O)NC1CCCCC1`, the AC50 was 4.96 µM.
For the molecule `COc1ccc(S(=O)(=O)Nc2ccc3c(c2)C(=O)N([C@H](C)CO)C[C@@H](C)[C@@H](CN(C)Cc2ccc(C(F)(F)F)cc2)OCCCC[C@H](C)O3)cc1`, the AC50 was 6.77 µM.
For the molecule `COc1cc(/C=N/n2cnnc2)ccc1OC(=O)c1ccncc1`, the AC50 was 3.6 µM.
The figure for `OC(c1cc(-c2cccc(Cl)c2)nc2ccccc12)C1CCCCN1` (centres undefined) is 4.14 µM; for `CCC(C)[C@H]1O[C@]2(CC[C@@H]1C)C[C@@H]1C[C@@H](C/C=C(\C)[C@@H](OC3C[C@H](OC)C(O[C@H]4C[C@H](OC)[C@@H](O)[C@H](C)O4)[C@H](C)O3)[C@@H](C)/C=C/C=C3\CO[C@@H]4[C@H](O)C(C)=C[C@@H](C(=O)O1)[C@]34O)O2` (some centres undefined) it is > 20 µM (inactive).
For the molecule `COc1ccc(C=Cc2ccc3ccccc3n2)c(OC)c1`, the concentration at half-maximal activity (AC50) is 11.3 µM.
With `Cc1noc(C)c1S(=O)(=O)Nc1ccc2c(c1)CC(=O)N([C@@H](C)CO)C[C@@H](C)[C@@H](CN(C)Cc1ccc(Oc3ccccc3)cc1)O2`, the AC50 is 7.39 µM.
Take `O=C(Nc1ccccn1)c1ccc(-c2ccccc2)cc1`: the AC50 was 2.35 µM.
For the molecule `N#Cc1c(Br)n(C2OC(CO)C(O)C2O)c2ncnc(N)c12` (centres undefined), the AC50 was 1.74 µM.
Turning to `N#CC(C#N)=NNc1cccc(Cl)c1`, the AC50 is 6.54 µM.
As to `COc1ccc(S(=O)(=O)Nc2ccc3c(c2)C(=O)N([C@@H](C)CO)C[C@@H](C)[C@@H](CN(C)Cc2ccc(C(F)(F)F)cc2)OCCCC[C@H](C)O3)cc1`, the AC50 was > 7 µM (inactive).
For `O=C1CCCCC1Sc1nnc(-c2ccc3c(c2)OCO3)o1` (centres undefined), the AC50 was 0.951 µM.
As for `Oc1c(Cl)cc(Cl)cc1Sc1cc(Cl)cc(Cl)c1O`, the AC50 is 7.67 µM.
As to `C[C@@H]1CN([C@H](C)CO)C(=O)c2cc(NS(=O)(=O)c3cccs3)ccc2O[C@@H](C)CCCCO[C@H]1CN(C)Cc1ccc(Cl)c(Cl)c1`, the AC50 was > 20 µM (inactive).
With `COC(=O)C[C@](O)(CCCC(C)(C)O)C(=O)O[C@@H]1C(OC)=C[C@]23CCCN2CCc2cc4c(cc2[C@H]13)OCO4`, the AC50 was < 0.0046 µM.
With `C=CC[n+]1c(/C=C2\C=Cc3cc(C)ccc3N2CC)ccc2ccccc21`, the AC50 was 2.7 µM.
As to `CC(C)NC(=O)N1Cc2cc(C(=O)NC3Cc4ccccc4C3)nc(-c3cccc(-c4cccnc4)c3)c2[C@@H]1CCO`, the AC50 is 10.6 µM.
`COc1ccc2c3c([nH]c2c1)[C@H](CO)N(C(=O)Nc1ccc(F)cc1)CC31CCN(C(=O)c2ccccc2F)CC1`: the AC50 was 6.92 µM.
Regarding `CC1CC(C)(O)CC(C(O)CC2CC(=O)NC(=O)C2)C1=O` (centres undefined), the AC50 is 0.0973 µM.
For the molecule `COc1ccc(/C=N/Nc2ncccc2[N+](=O)[O-])c(OC)c1`, the AC50 is 4.23 µM.
`C[C@H](CO)N1C[C@H](C)[C@@H](CN(C)Cc2ccc(Cl)c(Cl)c2)OCCCC[C@H](C)Oc2ccc(NS(=O)(=O)c3cccs3)cc2C1=O`: the AC50 was 8.38 µM.
Turning to `CS(=O)(=O)c1ccc(C(=O)OCC(=O)NC(=O)C2COc3ccccc3O2)cc1[N+](=O)[O-]` (centres undefined), the AC50 is 10.2 µM.
On to `CC(=NNC(=S)N1CC2CCC(CC2)C1)c1nccs1`, for which the AC50 was > 7 µM (inactive).
For the molecule `N#C[C@H]1[C@H](c2ccc(C#Cc3ccc(F)cc3)cc2)[C@@H](CO)N1C(=O)C1CCC1`, the AC50 was 7.7 µM.
For `O=S(=O)(CCSc1ccccn1)c1nc2ccccc2s1`, the AC50 was 8.22 µM.
Take `CCC(=O)NC(c1ccccc1OC)c1ccc2cccnc2c1O` (centres undefined): the AC50 is 8.63 µM.
Take `CC(C)(C)[C@H](N)C(=O)N[C@H]1CCC2C3CC=C4C[C@@H](O)CC[C@]4(C)C3CC[C@@]21C` (some centres undefined): the AC50 is 5.04 µM.
With `COCC(C)n1c(C)cc(C(=O)COC(=O)c2cccn2C)c1C` (centres undefined), the half-maximal activity concentration (AC50) is 3.06 µM.
Consider `COc1ccc(-c2cc(-c3ccccc3)c(C#N)c(S(C)=O)n2)cc1` (centres undefined), for which the AC50 was 2.55 µM.
Take `NC(=O)c1c(Br)n(C2OC(CO)C(O)C2O)c2ncnc(N)c12` (centres undefined): the AC50 is 3.84 µM.
`COc1ccc(C(=O)O/N=C2\C(=O)N(C)c3ccccc32)cc1`: the AC50 is 1.84 µM.
For `CC[C@@]1(O)C(=O)OCc2c1cc1n(c2=O)Cc2cc3c(CN(C)C)c(O)ccc3nc2-1`, the half-maximal activity concentration (AC50) is 0.9 µM.
In the case of `Cn1cnc(CCNC(=O)C[C@@H]2CC[C@@H]3[C@H](COC[C@@H](O)CN3C(=O)Nc3ccc(C(F)(F)F)cc3)O2)c1`, the AC50 is 8.76 µM.
With `[O-]C(=C(C(=S)Nc1cccc2ccccc12)[n+]1ccccc1)c1ccc2c(c1)OCCO2`, the AC50 was > 20 µM (inactive).
In the case of `Cc1c(CCOC(=O)CC23CC4CC(CC(C)(C4)C2)C3)sc[n+]1CC(=O)c1ccccc1` it was 3.22 µM; in that of `C[C@H](CO)N1C[C@H](C)[C@H](CN(C)S(=O)(=O)c2ccc([N+](=O)[O-])cc2)OCc2ccccc2-c2c(n(C)c3ccccc23)C1=O`, 9.57 µM.
Turning to `CC[C@H]1CN2CCc3cc(OC)c(OC)cc3C2C[C@@H]1CC1NCCc2cc(OC)c(OC)cc21` (some centres undefined), the AC50 was 0.0205 µM.
Regarding `CC1=CC(C)(C)N=C(Nc2nc(C)c3cc(C)cc(C)c3n2)N1`, the concentration at half-maximal activity (AC50) is 3.85 µM.
The figure for `CC[C@@]1(O)C(=O)OCc2c1cc1n(c2=O)Cc2cc3ccccc3nc2-1` is 0.961 µM; for `CC1OC(OC2C(O)CC(OC3C(O)CC(OC4CCC5(C)C(CCC6C5CCC5(C)C(C7=CC(=O)OC7)C(O)CC65O)C4)OC3C)OC2C)CC(O)C1O` (centres undefined) it is 0.943 µM.
In the case of `Oc1ccc2c(c1)OCC1(O)Cc3cc(O)c(O)cc3C21` (centres undefined) it was 2.81 µM; in that of `COC(=O)C12OCC34C(CC5C(C)=C(O)C(=O)CC5(C)C3C(O)C1O)OC(=O)C(OC(=O)C=C(C)C)C24` (centres undefined), 0.479 µM; in that of `COc1ccc(S(=O)(=O)N(C)C[C@H]2Oc3ccc(NC(=O)Nc4ccc(C(F)(F)F)cc4)cc3C(=O)N([C@@H](C)CO)C[C@H]2C)cc1`, > 20 µM (inactive).
`COc1cccc(S(=O)(=O)N(C)C[C@H]2OCc3ccccc3-c3c(n(C)c4ccccc34)C(=O)N([C@H](C)CO)C[C@@H]2C)c1`: the AC50 was > 7 µM (inactive).
As for `O=C(C1CC1)N1C[C@@H]2N[C@H](C1)C2c1ccc(-c2cccc(F)c2)cc1` (some centres undefined), the AC50 was 6.91 µM.
As for `Cn1cc(C2=C(c3cn(CCCSC(=N)N)c4ccccc34)C(=O)NC2=O)c2ccccc21`, the AC50 is 0.67 µM.
On to `C[C@@H]1CN([C@@H](C)CO)C(=O)c2c(c3ccccc3n2C)-c2ccccc2CO[C@@H]1CN(C)C(=O)c1cc(Cl)cc(Cl)c1`, for which the AC50 was > 20 µM (inactive).
Regarding `CC1OC(CC(=O)O)CC2=C1C(=O)c1c(O)cccc1C2=O` (centres undefined), the concentration at half-maximal activity (AC50) was 0.204 µM.
In the case of `COc1ccc(/C=C\c2nc(=O)c3ccccc3o2)cc1`, the AC50 was 7.67 µM.
On to `CC1(C)C(=O)C=C[C@@]2(C)C1C=C[C@]1(C)C2CC[C@@]2(C)[C@H](c3ccoc3)OC(=O)[C@H]3O[C@]321` (some centres undefined), for which the half-maximal activity concentration (AC50) is 5.24 µM.
Turning to `COc1ccc(CC2C(=O)NC(C)C(=O)N(C)C3C(=O)N(C)C(Cc4ccc(O)c(c4)Oc4ccc(cc4)C3O)C(=O)NC(C)C(=O)NC(C)C(=O)N2C)cc1` (centres undefined), the AC50 was 0.00902 µM.
`CC1(C)C(=O)C=C[C@@]2(C)C1C[C@@H](O)[C@]1(C)C2CC[C@@]2(C)[C@H](c3ccoc3)OC(=O)[C@H]3O[C@]321` (some centres undefined): the AC50 was 7.18 µM.
`C[C@H](CO)N1C[C@H](C)[C@H](CN(C)S(=O)(=O)c2ccc(Cl)cc2)Oc2c(NC(=O)Nc3ccc(F)cc3)cccc2C1=O`: the half-maximal activity concentration (AC50) was 6.47 µM.
In the case of `O=C1CC(=O)OC(c2ccc([N+](=O)[O-])cc2)O1`, the AC50 was 0.629 µM.
Take `c1ccc(OCCSc2nnc3sc4ccccc4n23)cc1`: the AC50 is 4.7 µM.
Regarding `O=C(Cc1ccccc1)N1CC[C@@H]2[C@H]1c1cc(-c3cccc(F)c3)ccc1N[C@@H]2CO`, the AC50 is 1.89 µM.
As for `Cc1cc(C(=O)COC(=O)CNC(=O)c2ccccc2)c(C)n1CC1CCCO1` (centres undefined), the AC50 is 2.32 µM.
Take `Cn1c(CO)nc2cc(N)ccc21`: the AC50 was > 20 µM (inactive).
Turning to `CCOC(=O)c1c(SCCN2CCCC2)n(-c2ccccc2)c(=S)n(-c2ccccc2)c1=O`, the AC50 was > 20 µM (inactive).
For `NC(=NCCCCCCN=C(N)/N=C(\N)Nc1ccc(Cl)cc1)/N=C(\N)Nc1ccc(Cl)cc1`, the AC50 is > 20 µM (inactive).
On to `C[C@H](CO)N1C[C@H](C)[C@H](CN(C)C(=O)C2CCOCC2)Oc2ncc(C#CCc3ccccc3)cc2C1=O`, for which the AC50 was 9.51 µM.
As to `CC1=C(C#N)c2nc(N)c(C#N)c(C)c2/C1=C\c1ccccc1`, the AC50 was 4.41 µM.
The figure for `C[C@@H]1CN([C@H](C)CO)C(=O)c2c(c3ccccc3n2C)-c2ccccc2CO[C@@H]1CN(C)C(=O)c1cc(Cl)cc(Cl)c1` is 8.65 µM.
On to `CCOc1ncccc1C(=O)OC(C)C(=O)Nc1ccc(Cl)cn1` (centres undefined), for which the half-maximal activity concentration (AC50) was 10.1 µM.
Regarding `CC1CCCC=CC2CC(OC(=O)CN(C)C)CC2C(O)C=CC(=O)O1` (centres undefined), the AC50 is 1.77 µM.
As to `CC(C)c1ccc(NC(=O)Nc2nc(C(N)COCc3ccccc3)cs2)cc1` (centres undefined), the AC50 was 2.62 µM.
For `C[C@@H]1CN([C@@H](C)CO)C(=O)c2ccccc2-c2ccccc2CO[C@@H]1CN(C)Cc1ccc(Oc2ccccc2)cc1`, the AC50 is > 20 µM (inactive).
On to `Cc1cc(C)cc(N2C(=O)CC(Sc3nnnn3-c3ccccc3)C2=O)c1` (centres undefined), for which the AC50 is 0.675 µM.
For `C[C@@H]1CN([C@H](C)CO)C(=O)c2ccccc2-c2ccccc2CO[C@@H]1CN(C)Cc1ccccc1C(F)(F)F`, the AC50 was 9.99 µM.
`Clc1ccc(C(Cn2ccnc2)OCc2ccsc2Cl)c(Cl)c1` (centres undefined): the AC50 is 6.04 µM.

As usually defined, the AC50 is the midpoint of the concentration-response curve, whichever way the signal moves.
